# Test results taken from patent US20210215710A1, “METHODS FOR USE OF CDX2 AS A BIOMARKER TO GUIDE USE OF AUTOPHAGY INHIBITORS IN OVARIAN CANCER” (UNIVERSITY HEALTH NETWORK, priority 2019, published 2021).
# Assays:
# [1] = test system: CDX2(+) derived cell lines D4 and B2; assay: Long-term nutritional deprivation, cellular survival of cell colonies in vitro; format: cell-based
# Text: FIG. 6A depicts bar graphs that illustrate the long-term effect of nutritional deprivation on cellular survival in CDX2(−) and CDX2(+) cell colonies in vitro and the effect of treatment with autophagy inhibitors. […] P<0.001.
# [2] = test system: OVCA429 CDX2; assay: cells; settings: Homo sapiens, OVCA429, 48 h, read-out: 48 h IC50 CQ in adherent culture
# Text: (§1) FIG. 7 depicts bar graphs that illustrate the results of an OVCA429 soft agar assay. […] This confirms the effect in human high grade serous ovarian cancer cells. […] CDX2(−) at left. […] P<0.005.
# [3] = test system: OVCA429 GAL (CDX2(−)); assay: cells; settings: Homo sapiens, OVCA429, 48 h, read-out: 48 h IC50 CQ in adherent culture
# Text: as §1
# [4] = test system: CDX2(+) ovarian tumours in mice; assay: Survival of mice with ovarian tumours treated with chloroquine; format: in vivo, mouse; settings: chloroquine 10 mg/kg 3 times a week, initiated 30 days after delivery of tumor cells
# Text: For all experiments aged females (9-10 month) were used, as these represent targeted patient population (e.g., peri-menopausal women). Mice were sacrificed when ascites formed.
# [5] = test system: CDX2(+) ovarian cancer cells; assay: Hanging drop assay under starvation conditions; format: cell-based, mouse
# Text: FIG. 3A depicts a CDX2(−) parental control. FIGS. 3B and 3C depict CDX2(+) derived cell lines. The mouse ovarian cancer cell line MOSEC5 that is CDX2(−) was genetically modified to create CDX2(+) derived cell lines. Cells were placed in a “hanging drop” assay under starvation conditions.
# [6] = test system: Cdx2-expressing cells; assay: Expression of autophagy genes after chloroquine in Cdx2-expressing cells; format: cell-based
Compound,survival of CDX2(+) cells after long-term stress [1],IC50 [2] [µM],IC50 [3] [µM],survival of mice [4],survival of mice ([4]; listed as Chloroquine),cancer cell survival [5],inhibition of autophagy [5],LAM P1 gene expression [6],NPC gene expression [6],SQSTM1 gene expression [6],ULK2 gene expression [6],WIPI1 gene expression [6]
Cn1cnc(N)c2ncnc1-2 [3-methyladenine],reverse this survival,–,–,–,–,–,–,–,–,–,–,–
CCN(CC)CCCC(C)Nc1ccnc2cc(Cl)ccc12 (stereo not shown) [chloroquine],reverse this survival,9.3,11.5,prolongs survival of mice with ovarian tumours,improved survival in CDX2(+) mice,reduce cancer cell survival,did inhibit autophagy,down-regulated,significantly up-regulated,significantly up-regulated,down-regulated,significantly up-regulated
